The numbers were not newly measured in US20240217946A1, “ANTIDEPRESSANT AND ANXIOLYTIC SUBSTITUTED CINNAMAMIDE COMPOUND” (TASLY PHARMACEUTICAL GROUP CO., LTD., priority 2021, published 2024), which cites them from elsewhere.

This data set has as its system mice. The following applies: 10 mg/kg for 7 days; cited from earlier work.

`CC(C)CNC(=O)/C=C/c1cc2c(c(C(F)(F)F)c1)OCO2` [Compound I-5]: the “immobility time of tail suspension in mice” value is recorded as “significantly shorten the immobility time”.
